Consider 20 compounds from patent US11180459B2, “Bacterial efflux pump inhibitors” (RUTGERS, THE STATE UNIVERSITY OF NEW JERSEY, priority 2017, dated 2021).

Where a name gives a salt, the structure may show the parent alone.

The subject of test [1] is Pseudomonas aeruginosa ATCC 27853. Kind of test: Standard EPI assay: levofloxacin MIC with EPI. The class given is cell-based. The note with it: levofloxacin as antibiotic, P. aeruginosa ATCC 27853. Here is the method: (§1) MIC assays were conducted in accordance with Clinical and Laboratory Standards Institute (CLSI) guidelines for broth microdilution.
(§2) The EPI assay for the purposes of these studies represents a MIC assay in which the MIC of the antibiotic against the bacteria is tested in the presence of an experimental efflux pump inhibitor (EPI). The highest concentration of the EPI present in the assay typically is ½ of the intrinsic MIC of the compound. If the intrinsic MIC of the EPI is greater than 100 μg/mL, the EPI assay was tested with 50 μg/mL. Using serial dilutions of the EPI, its enhancement of antibiotic activity was then evaluated. The relative EPI activity was decided by comparing the MIC of the antibiotic in the presence of the EPI compound with the intrinsic MIC of the antibiotic alone. For the evaluation of the efficacy of an EPI against bacteria that were pre-exposed to an antibiotic, the inoculum of bacteria that used was developed from a bacterial culture isolated as a single colony following exposure at ½ the MIIC of the antibiotic (so as to induce efflux pump expression), was to be used in combination with the EPI.
(§3) In our standard EPI assay, the MIC of the test antibiotic is determined in the absence and presence of sub-inhibitory concentrations of the EPI. Initially, the sub-inhibitory concentration used was ½×MIC of the EPI. […] The MIC of levofloxacin against P. aeruginosa ATCC 27853 in the absence of EPI is 1 μg/mL. […] Similar methodology was employed to examine the synergy with Escherichia coli ATCC 25922 in the presence of varied concentrations of these EPIs using clarithromycin as the antibiotic.

In test [2] the test system is Escherichia coli ATCC 25922. Kind of test: Standard EPI assay: clarithromycin MIC with EPI. The conditions noted are these: clarithromycin as antibiotic, E. coli ATCC 25922. Type of test: cell-based. Here is the method: as §1, §2, §3

For the compound `Cl.Cl.NCCC(N)CNC(=O)c1nc2cc(-c3ccc(F)cc3)ccc2[nH]1` (stereo in doubt) [Example 12, (S)-4-(5-(4-fluorophenyl)-1H-benzo[d]imidazole-2-carboxamido) butane-1,3-diaminium Chloride], in test [1] (EPI at 12.5 (μg)), the “Enhanced Activity in P. aeruginosa (fold enhancement of antibiotic activity / EPI concentration)” value turned out to be 4×/12.5. For the same compound, the “Enhanced Activity in E. coli (fold enhancement of antibiotic activity / EPI concentration)” value in test [2] (EPI at 50 (μg)) was 8×/50.

For `NCCC[C@H](N)CNC(=O)c1nc2cc(-c3ccc(F)cc3)c(-c3ccc(F)cc3)cc2[nH]1` [Example 1, (S)—N-(2,5-diaminopentyl)-5,6-bis(4-fluorophenyl)-1H-benzo[d]imidazole-2-carboxamide Dihydrochloride], the “Enhanced Activity in E. coli (fold enhancement of antibiotic activity / EPI concentration)” value in test [2] (EPI at 6.25 (μg)) turned out to be 512×/6.25.

On to `NCCC[C@H](N)CNC(=O)c1nc2cc(-c3ccc(F)cc3)cc(-c3ccc(F)cc3)c2[nH]1` [Example 2, (S)—N-(2,5-diaminopentyl)-5,7-bis(4-fluorophenyl)-1H-benzo[d]imidazole-2-carboxamide Dihydrochloride], for which the “Enhanced Activity in P. aeruginosa (fold enhancement of antibiotic activity / EPI concentration)” value in test [1] (EPI at 12.5 (μg)) worked out at 1×/12.5.

Turning to `Cn1c(C(=O)NC[C@@H](N)CCCN)nc2cc(-c3ccc(F)cc3)cc(C(F)(F)F)c21` [Example 4, (S)—N-(2,5-diaminopentyl)-5-(4-fluorophenyl)-1-methyl-7-(trifluoromethyl)-1H-benzo[d]imidazole-2-carboxamide Dihydrochloride], in test [1] (EPI at 12.5 (μg)), the “Enhanced Activity in P. aeruginosa (fold enhancement of antibiotic activity / EPI concentration)” value was found to be 8×/12.5. Further, the “Enhanced Activity in E. coli (fold enhancement of antibiotic activity / EPI concentration)” value in test [2] (EPI at 50 (μg)) is recorded as 512×/50.

As to `Cn1c(C(=O)NC[C@@H](N)CCCN)nc2cc(-c3ccc(F)cc3)ccc21` [Example 5, (S)—N-(2,5-diaminopentyl)-5-(4-fluorophenyl)-1-methyl-1H-benzo[d]imidazole-2-carboxamide Dihydrochloride], the “Enhanced Activity in E. coli (fold enhancement of antibiotic activity / EPI concentration)” value in test [2] (EPI at 50 (μg)) amounted to 64×/50.

In the case of `N#Cc1cccc(-c2ccc3[nH]c(C(=O)NC[C@@H](N)CCCN)nc3c2)c1` [Example 7, (S)-5-(3-cyanophenyl)-N-(2,5-diaminopentyl)-1H-benzo[d]imidazole-2-carboxamide Dihydrochloride], the “Enhanced Activity in P. aeruginosa (fold enhancement of antibiotic activity / EPI concentration)” value in test [1] (EPI at 12.5 (μg)) is on record as 4×/12.5.

In the case of `COc1ccc(-c2ccc3[nH]c(C(=O)NC[C@@H](N)CCCN)nc3c2)cc1` [Example 8, (S)—N-(2,5-diaminopentyl)-5-(4-methoxyphenyl)-1H-benzo[d]imidazole-2-carboxamide Dihydrochloride], the “Enhanced Activity in P. aeruginosa (fold enhancement of antibiotic activity / EPI concentration)” value in test [1] (EPI at 12.5 (μg)) is on record as 2×/12.5. In test [2] (EPI at 50 (μg)), the “Enhanced Activity in E. coli (fold enhancement of antibiotic activity / EPI concentration)” value is recorded as 2×/50.

Regarding `NCCC[C@H](N)c1nc2cc(-c3ccc(F)cc3)ccc2[nH]1` [Example 9, (S)-1-(5-(4-fluorophenyl)-1H-benzo[d]imidazol-2-yl)butane-1,4-diamine Dihydrochloride], the “Enhanced Activity in P. aeruginosa (fold enhancement of antibiotic activity / EPI concentration)” value in test [1] (EPI at 25 (μg)) is 1×/25. The “Enhanced Activity in E. coli (fold enhancement of antibiotic activity / EPI concentration)” value in test [2] (EPI at 50 (μg)) came to 256×/50.

In the case of `NCCC[C@H](N)CNC(=O)Cc1nc2ccc(-c3ccc(F)cc3)cc2[nH]1` [Example 10, (S)—N-(2,5-diaminopentyl)-2-(6-(4-fluorophenyl)-1H-benzo[d]imidazol-2-yl)acetamide Dihydrochloride], the “Enhanced Activity in E. coli (fold enhancement of antibiotic activity / EPI concentration)” value in test [2] (EPI at 50 (μg)) amounted to 1×/50.

Turning to `CC(C)(N)C1CN[C@H](CNC(=O)c2nc3ccc(-c4ccc(F)cc4)cc3[nH]2)C1` (stereo partly drawn) [Example 11, N-(((2S)-4-(2-aminopropan-2-yl)pyrrolidin-2-yl)methyl)-6-(4-fluorophenyl)-1H-benzo[d]imidazole-2-carboxamide Dihydrochloride], the “Enhanced Activity in P. aeruginosa (fold enhancement of antibiotic activity / EPI concentration)” value in test [1] (EPI at 12.5 (μg)) is 2×/12.5.

Consider `Cl.Cl.NC[C@H](N)CNC(=O)c1nc2ccc(-c3ccc(F)cc3)cc2[nH]1` [Example 13, (S)-3-(5-(4-fluorophenyl)-1H-benzo[d]imidazole-2-carboxamido) propane-1,2-diaminium Dihydrochloride], for which the “Enhanced Activity in P. aeruginosa (fold enhancement of antibiotic activity / EPI concentration)” value in test [1] (EPI at 25 (μg)) came out at 4×/25.

Regarding `Cl.Cl.N=C(N)NCCC[C@H](N)CNC(=O)c1nc2cc(-c3ccc(F)cc3)ccc2[nH]1` [Example 14, (S)-5-((amino(iminio)methyl)amino)-1-(5-(4-fluorophenyl)-1H-benzo[d]imidazole-2-carboxamido) pentan-2-aminium Chloride], in test [1] (EPI at 12.5 (μg)), the “Enhanced Activity in P. aeruginosa (fold enhancement of antibiotic activity / EPI concentration)” value is 4×/12.5. For the same compound, the “Enhanced Activity in E. coli (fold enhancement of antibiotic activity / EPI concentration)” value in test [2] (EPI at 50 (μg)) is 2×/50.

Take `COc1ccc(-c2ccc3nc(C(=O)NC[C@@H](N)CCN)[nH]c3c2)cc1.Cl.Cl` [Example 15, (S)-4-(5-(4-methoxyphenyl)-1H-benzo[d]imidazole-2-carboxamido)butane-1,3-diaminium Dihydrochloride]: the “Enhanced Activity in P. aeruginosa (fold enhancement of antibiotic activity / EPI concentration)” value in test [1] (EPI at 12.5 (μg)) was 2×/12.5. The “Enhanced Activity in E. coli (fold enhancement of antibiotic activity / EPI concentration)” value in test [2] (EPI at 50 (μg)) stood at 2×/50.

Consider `CC(C)C(N)CC[C@H](N)CNC(=O)c1nc2cc(-c3ccc(F)cc3)ccc2[nH]1` (stereo partly drawn) [Example 16, N-((2S)-2,5-diamino-6-methylheptyl)-5-(4-fluorophenyl)-1H-benzo[d]imidazole-2-carboxamide Dihydrochloride], for which, in test [2] (EPI at 6.25 (μg)), the “Enhanced Activity in E. coli (fold enhancement of antibiotic activity / EPI concentration)” value was 4×/6.25.

Turning to `NCCC[C@H](N)CNC(=O)c1nc2cc(-c3ccc(F)cc3)ccc2[nH]1` [Example 17, (S)—N-(2,5-diaminopentyl)-5-(4-fluorophenyl)-1H-benzo[d]imidazole-2-carboxamide Dihydrochloride], the “Enhanced Activity in E. coli (fold enhancement of antibiotic activity / EPI concentration)” value in test [2] (EPI at 50 (μg)) is on record as 256×/50.

Turning to `NCCC[C@@H](N)CNC(=O)c1nc2cc(-c3ccc(F)cc3)ccc2[nH]1` [Example 18, (R)—N-(2,5-diaminopentyl)-5-(4-fluorophenyl)-1H-benzo[d]imidazole-2-carboxamide Dihydrochloride], the “Enhanced Activity in E. coli (fold enhancement of antibiotic activity / EPI concentration)” value in test [2] (EPI at 6.25 (μg)) stood at 2×/6.25.

Turning to `NCCC[C@H](N)CNC(=O)c1nc2cc(Br)ccc2[nH]1` [Example 23, (S)-5-bromo-N-(2,5-diaminopentyl)-1H-benzo[d]imidazole-2-carboxamide Hydrogen Chloride Salt], the “Enhanced Activity in E. coli (fold enhancement of antibiotic activity / EPI concentration)” value in test [2] (EPI at 50 (μg)) came out at 2×/50 μg.

Take `Cl.Cl.NCCC[C@H](N)CNC(=O)c1nc2ccc(-c3ccc(N)cc3)cc2[nH]1` [Example 25, (S)-6-(4-aminophenyl)-N-(2,5-diaminopentyl)-1H-benzo[d]imidazole-2-carboxamide Hydrogen Chloride Salt]: the “Enhanced Activity in E. coli (fold enhancement of antibiotic activity / EPI concentration)” value in test [2] (EPI at 50 (μg)) is 2×/50 μg.

As to `Cl.Cl.Cn1c(C(=O)NC[C@@H](N)CCCN)nc2cc(-c3ccc(F)cc3)c(-c3ccc(F)cc3)cc21` [Example 30, (S)—N-(2,5-diaminopentyl)-5,6-bis(4-fluorophenyl)-1-methyl-1H-benzo[d]imidazole-2-carboxamidehydrogen Chloride Salt], the “Enhanced Activity in E. coli (fold enhancement of antibiotic activity / EPI concentration)” value in test [2] (EPI at 6.25 (μg)) was found to be 512×/6.25 μg.

As to `Cl.Cl.NCCC[C@H](N)CNC(=O)c1nc2cc(-c3ccc(F)cc3)c(-c3ccc(F)cc3)cc2n1Cc1ccccc1` [Example 31, (S)-1-benzyl-N-(2,5-diaminopentyl)-5,6-bis(4-fluorophenyl)-1H-benzo[d]imidazole-2-carboxamide Hydrogen Chloride Salt], the “Enhanced Activity in E. coli (fold enhancement of antibiotic activity / EPI concentration)” value in test [2] (EPI at 6.25 (μg)) stood at 8×/6.25 μg.
